# Assays:
# Experiment in all cases: relative viability (nuclei count vs DMSO), 5 days (fraction); higher = more cells survive
# [1] = compound: CC1=CC(=NN1)NC2=CC(=NC(=N2)/C=C/C3=CC=CC=C3)N4CCN(CC4)C + CC(=O)c1c(C)c2cnc(Nc3ccc(N4CCNCC4)cn3)nc2n(C2CCCC2)c1=O [Palbociclib] (partner 0.5 µM)
# Procedure, shortened: (§1)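 Medians of duplicate plates are given as relative viability. That measure is the nuclei count in treated wells divided by the count in vehicle wells. Counts were taken on 4× images of lung cancer cell lines in 1536-well plates, 5 days after pin-tool dosing the day after seeding with one drug alone or a fixed anchor-drug dose plus five library-drug doses (not always all listed) in √10 steps.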
# Obatoclax + Lapatinib = compound: COC1=CC(c2cc3ccccc3[nH]2)=N/C1=C\c1[nH]c(C)cc1C [Obatoclax] + CS(=O)(=O)CCNCc1ccc(-c2ccc3ncnc(Nc4ccc(OCc5cccc(F)c5)c(Cl)c4)c3c2)o1 [Lapatinib] (partner 2 µM)
# Procedure, shortened: as §1
# Obatoclax + Bortezomib = compound: COC1=CC(c2cc3ccccc3[nH]2)=N/C1=C\c1[nH]c(C)cc1C [Obatoclax] + CC(C)C[C@H](NC(=O)[C@H](Cc1ccccc1)NC(=O)c1cnccn1)B(O)O [Bortezomib] (partner 0.002 µM)
# Procedure, shortened: as §1
# [2] = compound: CC1=CC(=NN1)NC2=CC(=NC(=N2)/C=C/C3=CC=CC=C3)N4CCN(CC4)C + O=C(CCCCCCC(=O)Nc1ccccc1)NO [Vorinostat] (partner 1 µM)
# Procedure, shortened: as §1
Cell Line,relative viability ([1]; first compound 0.08 µM),relative viability ([1]; first compound 0.253 µM),relative viability ([1]; first compound 0.8 µM),relative viability ([1]; first compound 2.53 µM),relative viability ([1]; first compound 8 µM),relative viability (Obatoclax + Lapatinib; first compound 0.01 µM),relative viability (Obatoclax + Lapatinib; first compound 0.03162 µM),relative viability (Obatoclax + Lapatinib; first compound 0.1 µM),relative viability (Obatoclax + Lapatinib; first compound 0.3162 µM),relative viability (Obatoclax + Lapatinib; first compound 1 µM),relative viability (Obatoclax + Bortezomib; first compound 0.01 µM),relative viability (Obatoclax + Bortezomib; first compound 0.03162 µM),relative viability (Obatoclax + Bortezomib; first compound 0.1 µM),relative viability (Obatoclax + Bortezomib; first compound 0.3162 µM),relative viability (Obatoclax + Bortezomib; first compound 1 µM),relative viability ([2]; first compound 0.08 µM),relative viability ([2]; first compound 0.253 µM),relative viability ([2]; first compound 0.8 µM),relative viability ([2]; first compound 2.53 µM),relative viability ([2]; first compound 8 µM)
201T,0.345,0.358,0.359,0.33,0.197,1.08,0.789,0.94,1.01,0.97,1.09,1.01,1.13,1.1,1.1,1,1.13,0.997,0.879,0.449
A-427,0.58,0.518,0.51,0.454,0.201,1.08,0.884,1.03,1.09,0.992,1.02,0.966,1.01,1.01,0.944,0.943,0.904,0.822,0.334,0.212
ABC-1,0.668,0.633,0.934,0.636,0.227,0.87,1.15,1.25,1.04,1.33,0.323,0.134,0.23,0.323,0.212,1.01,1.19,1.31,0.392,0.225
BEN,0.421,0.459,0.511,0.437,0.328,0.726,0.696,0.305,0.792,0.698,0.826,0.735,0.356,0.734,0.838,0.544,0.53,0.563,0.47,0.334
CAL-12T,0.412,0.335,0.466,0.185,0.119,0.609,0.733,0.755,0.392,0.287,0.969,1.02,0.915,0.697,0.567,0.686,0.573,0.639,0.428,0.126
COR-L23,0.315,0.33,0.24,0.127,0.0777,0.954,0.957,0.714,0.254,0.199,0.962,1,0.961,0.461,0.187,0.417,0.446,0.195,0.0754,0.087
COR-L 105,0.432,0.381,0.406,0.275,0.323,0.368,0.318,0.369,0.294,0.252,0.989,0.782,0.777,0.432,0.335,0.818,0.762,0.753,0.47,0.262
EKVX,0.414,0.465,0.362,0.301,0.144,0.208,0.19,0.215,0.199,0.189,1.05,1.01,1.03,1.01,1.13,0.702,0.82,0.794,0.571,0.289
EMC-BAC-2,0.519,0.543,0.504,0.454,0.273,0.878,0.908,0.886,0.74,0.897,1.15,1.04,1.03,1.1,1.16,0.416,0.428,0.354,0.171,0.0976
EPLC-272H,0.299,0.342,0.319,0.291,0.204,0.942,0.909,0.458,0.913,0.883,0.833,0.88,1.05,0.864,0.894,0.472,0.488,0.401,0.141,0.0816
H3255,0.322,0.319,0.345,0.313,0.267,0.51,0.244,0.327,0.256,0.315,0.764,0.784,0.725,0.762,0.793,0.746,0.834,0.872,0.831,0.525
HARA,0.296,0.31,0.266,0.174,0.103,0.816,0.752,0.667,0.69,0.297,1.1,0.759,1.17,1.02,0.724,0.545,0.689,0.459,0.26,0.0694
HCC-15,0.743,0.771,0.716,0.347,0.114,0.854,0.801,0.747,0.723,0.581,0.973,1.02,0.926,0.957,0.739,0.861,0.875,0.887,0.526,0.114
HCC-44,0.984,0.946,0.952,1.01,0.644,1.08,0.891,0.955,0.876,0.37,0.861,0.836,0.822,0.769,0.386,1.08,1.13,1.05,0.904,0.36
HCC-78,0.469,0.439,0.546,0.398,0.338,0.937,0.64,–,0.579,0.844,0.539,0.402,0.718,0.456,0.743,0.465,0.518,0.461,0.372,0.246
HCC-366,0.414,0.368,0.344,0.0349,0.019,1.02,1.05,0.921,0.636,0.379,1.06,1,1.08,0.88,1.04,0.38,0.505,0.136,0.0276,0.0214

Cell Line,relative viability ([1]; first compound 0.08 µM),relative viability ([1]; first compound 0.253 µM),relative viability ([1]; first compound 0.8 µM),relative viability ([1]; first compound 2.53 µM),relative viability ([1]; first compound 8 µM),relative viability (Obatoclax + Lapatinib; first compound 0.01 µM),relative viability (Obatoclax + Lapatinib; first compound 0.03162 µM),relative viability (Obatoclax + Lapatinib; first compound 0.1 µM),relative viability (Obatoclax + Lapatinib; first compound 0.3162 µM),relative viability (Obatoclax + Lapatinib; first compound 1 µM),relative viability (Obatoclax + Bortezomib; first compound 0.01 µM),relative viability (Obatoclax + Bortezomib; first compound 0.03162 µM),relative viability (Obatoclax + Bortezomib; first compound 0.1 µM),relative viability (Obatoclax + Bortezomib; first compound 0.3162 µM),relative viability (Obatoclax + Bortezomib; first compound 1 µM),relative viability ([2]; first compound 0.08 µM),relative viability ([2]; first compound 0.253 µM),relative viability ([2]; first compound 0.8 µM),relative viability ([2]; first compound 2.53 µM),relative viability ([2]; first compound 8 µM)
HCC-827,0.445,0.514,0.505,0.501,0.231,0.183,0.195,0.226,0.229,0.271,0.928,0.861,0.821,0.855,1.04,0.282,0.908,0.823,0.773,0.215
HOP-62,0.41,0.458,0.492,0.371,0.154,0.963,0.909,0.976,1.04,1.05,0.909,0.787,0.639,0.739,0.719,0.603,0.566,0.637,0.387,0.129
LC-2-ad,0.552,0.488,0.413,0.298,0.18,0.977,0.906,0.802,0.817,0.867,0.979,0.98,0.98,0.785,0.339,0.709,0.751,0.467,0.186,0.15
LCLC-97TM1,0.246,0.201,0.201,0.168,0.0556,0.835,0.936,1.3,0.906,1.21,0.735,0.449,0.439,0.619,0.213,0.625,0.787,0.74,0.19,0.0813
LOU-NH91,0.55,0.516,0.5,0.56,0.407,0.826,0.73,0.669,0.603,0.59,0.531,0.435,–,0.367,0.441,0.954,0.935,0.941,0.594,0.41
LU99A,0.413,0.461,0.393,0.299,0.146,0.997,0.922,0.914,0.255,0.196,1.12,1.13,1.03,0.357,0.224,0.481,0.434,0.425,0.182,0.0957
LXF-289,0.632,0.63,0.602,0.568,0.304,0.893,0.903,0.934,0.832,0.624,1.01,1.01,0.999,0.958,0.847,0.742,0.759,0.603,0.252,0.113
NCI-H23,0.483,0.505,0.409,0.158,0.123,1.13,1.23,0.805,0.619,0.458,1.03,0.873,1.13,0.804,0.762,0.485,0.756,0.457,0.141,0.0948
NCI-H322M,0.444,0.572,0.458,0.336,0.287,0.59,0.505,0.763,0.608,0.546,1.13,1.21,1.41,1.16,1.34,0.881,0.948,0.891,0.31,0.303
NCI-H460,0.159,0.145,0.149,0.0195,0.0182,1,1.06,0.806,0.0507,0.0208,1.01,1.19,0.945,0.0492,0.0392,0.673,0.755,0.382,0.0404,0.0188
NCI-H520,0.209,0.214,0.184,0.142,0.113,0.805,0.821,0.879,0.493,0.22,0.664,0.525,0.562,0.299,0.264,0.7,0.678,0.415,0.184,0.14
NCI-H647,0.429,0.365,0.332,0.115,0.0496,1.02,0.982,0.48,0.189,0.144,0.902,0.853,0.541,0.351,0.143,0.58,0.626,0.391,0.128,0.0534
NCI-H661,0.4,0.41,0.404,0.27,0.269,0.421,0.47,0.539,0.474,0.611,0.805,0.704,0.865,0.843,0.786,0.784,0.854,0.562,0.348,0.311
NCI-H727,0.641,0.628,0.672,0.691,0.409,0.949,0.792,0.798,0.715,0.457,0.892,0.827,1.17,0.847,0.335,0.86,0.882,1.32,1.02,0.523
NCI-H838,0.243,0.241,0.169,0.127,0.106,1.07,1.17,0.465,0.62,0.377,1.01,0.748,0.495,0.754,0.404,0.726,0.729,0.394,0.146,0.117
NCI-H1355,0.442,0.444,0.387,0.309,0.165,1.06,0.886,0.838,0.862,0.921,1.23,1.11,1.09,1.06,1.21,0.639,0.599,0.622,0.273,0.104
